# Reference: patent US7884234B2, “N-phenyloxamide derivatives” (Institute of Medicinal Molecular Design, inc., priority 2006, dated 2011)
# How the values were obtained:
# recombinant rat PAI-1 = molecular target: T1, recombinant rat PAI-1 (Rattus norvegicus, UniProt P20961); test: Test Example 3: rat PAI-1 inhibitory activity (tPA fluorogenic substrate assay, pH7.4 HEPES buffer); assay type: biochemical; conditions: for IC50: pH7.4 HEPES buffer, obtained from Table 7 results; for inhibition at 3 µM / inhibition at 10 µM: pH 7.4, read-out: Inhibition Rate of Rat PAI-1 Activity (%)
# T1 construct: purchased Molecular Innovations, Inc
# T1 sequence (P20961 24-402): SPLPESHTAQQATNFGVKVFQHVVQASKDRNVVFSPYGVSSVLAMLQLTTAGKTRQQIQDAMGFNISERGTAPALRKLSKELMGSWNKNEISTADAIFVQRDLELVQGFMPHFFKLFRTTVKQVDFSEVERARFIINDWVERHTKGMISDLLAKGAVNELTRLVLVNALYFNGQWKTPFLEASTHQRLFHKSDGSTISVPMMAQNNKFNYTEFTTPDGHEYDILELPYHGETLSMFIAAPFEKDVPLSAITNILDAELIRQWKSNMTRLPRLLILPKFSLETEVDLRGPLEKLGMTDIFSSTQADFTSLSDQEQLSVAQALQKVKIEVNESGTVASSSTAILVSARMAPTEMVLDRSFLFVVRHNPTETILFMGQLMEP
# Experimental: (§1) Except using the pH7.4 HEPES buffer instead of pH7.5 Tris buffer, and the change of incubation time from 15 minutes to 10 minutes of the mixed solution added by two-chain tPA solution, tests were carried out similarly to the Test Example 1.
# recombinant human PAI-1 = molecular target: T2, recombinant human PAI-1 (Homo sapiens, UniProt P05121); test: Test Example 2: human PAI-1 inhibitory activity (tPA fluorogenic substrate assay, pH7.4 HEPES buffer); assay type: biochemical; conditions: for IC50: pH7.4 HEPES buffer, obtained from Table 5 results; for inhibition at 3 µM: pH 7.4, read-out: Inhibition Rate of Human PAI-1 Activity (%)
# T2 construct: purchased Molecular Innovations, Inc
# Experimental: as §1
# <Compotion of pH7.4 HEPES Buffer>
# 0.1% Polyethylene glycol 8,000 (Hampton Research Corporation)
# 2 mM Dimethyldecylphoshine oxide [Apo-10] (Fluka Corporation)
# T2 sequence (P05121 24-402): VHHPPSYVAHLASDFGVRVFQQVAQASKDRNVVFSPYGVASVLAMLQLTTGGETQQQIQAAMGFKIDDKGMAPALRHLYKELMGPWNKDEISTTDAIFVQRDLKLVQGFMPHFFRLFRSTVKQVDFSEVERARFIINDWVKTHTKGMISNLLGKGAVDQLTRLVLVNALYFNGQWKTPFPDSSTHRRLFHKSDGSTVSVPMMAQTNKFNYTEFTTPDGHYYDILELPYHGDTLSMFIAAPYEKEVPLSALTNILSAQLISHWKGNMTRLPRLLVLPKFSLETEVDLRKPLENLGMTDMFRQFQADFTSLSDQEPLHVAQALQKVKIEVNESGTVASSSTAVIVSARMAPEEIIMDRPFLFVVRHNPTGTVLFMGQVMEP
SMILES,IC50 (recombinant rat PAI-1),IC50 (recombinant human PAI-1),inhibition at 3 µM (recombinant rat PAI-1),inhibition at 10 µM (recombinant rat PAI-1),inhibition at 3 µM (recombinant human PAI-1)
"CC(C)(C)c1ccc(CN(C(=O)C(=O)O)c2ccc(-c3ccc(OC(F)(F)F)cc3)cc2Cl)cc1 [compound 26, N-[4-(tert-butyl)benzyl]-N-[3-chloro-4′-(trifluoromethoxy)biphenyl-4-yl]oxamic Acid]",2160 nM,1170 nM,,,
"CC(C)(C)c1ccc(CN(C(=O)C(=O)O)c2cc(C(F)(F)F)ccc2-c2ccc(OC(F)(F)F)cc2)cc1 [compound 48, N-[4-(tert-butyl)benzyl]-N-[4′-(trifluoromethoxy)-4-(trifluoromethyl)biphenyl-2-yl]oxamic Acid]",2450 nM,1140 nM,61%,,
"CC(C)(C)c1ccc(CN(C(=O)C(=O)O)c2cccc(Oc3ccc(OC(F)(F)F)cc3)c2)cc1 [compound 52, N-[4-(tert-butyl)benzyl]-N-{3-[4-(trifluoromethoxy)phenoxy]phenyl}oxamic Acid]",3040 nM,1840 nM,,,
"CC(C)(C)c1ccc(COc2ccc(-c3ccc(OC(F)(F)F)cc3)cc2N(Cc2ccccc2)C(=O)C(=O)O)cc1 [compound 59, N-benzyl-N-{4-[4-(tert-butyl)benzyloxy]-4′-(trifluoromethoxy)biphenyl-3-yl}oxamic Acid]",1110 nM,660 nM,> 99%,> 99%,> 99%
"CCCOc1ccc(-c2ccc(OC(F)(F)F)cc2)cc1N(Cc1ccc(C(C)(C)C)cc1)C(=O)C(=O)O [compound 68, N-[4-(tert-butyl)benzyl]-N-[4-propoxy-4′-(trifluoromethoxy)biphenyl-3-yl]oxamic Acid]",1790 nM,1180 nM,,> 99%,
"CC(C)(C)c1ccc(CN(C(=O)C(=O)O)c2ccc(Cl)cc2-c2ccc(OC(F)(F)F)cc2)cc1 [compound 72, N-[4-(tert-butyl)benzyl]-N-[5-chloro-4′-(trifluoromethoxy)biphenyl-2-yl]oxamic Acid]",2140 nM,1060 nM,,,> 99%
"CCCCOc1ccc(N(Cc2ccc(C(C)(C)C)cc2)C(=O)C(=O)O)cc1-c1ccc(OC(F)(F)F)cc1 [compound 73, N-[4-(tert-butyl)benzyl]-N-[2-butoxy-4′-(trifluoromethoxy)biphenyl-5-yl]oxamic Acid]",1820 nM,1130 nM,,,> 99%
